Measured values taken from ChEMBL document CHEMBL1150976, “The selectivity of protein kinase inhibitors: a further update” (Biochem J, 2007).

Assays:
[1] = molecular target: Mitogen-activated protein kinase 9 (Homo sapiens, UniProt P45984); assay: Percentage JNK2 activity remaining in the presence of 2uM inhibitor
[2] = molecular target: Casein kinase I isoform delta (Homo sapiens, UniProt P48730); assay: Percentage CK1delta activity remaining in the presence of 2uM inhibitor
[3] = molecular target: Mitogen-activated protein kinase 11 (Homo sapiens) (UniProt Q15759); assay: Percentage p38beta activity remaining in the presence of 2uM inhibitor
[4] = molecular target: MAP/microtubule affinity-regulating kinase 3 (Homo sapiens) (UniProt P27448); assay: Percentage MARK3 activity remaining in the presence of 2uM inhibitor
[5] = molecular target: T1, Eukaryotic elongation factor 2 kinase (Homo sapiens) (UniProt O00418); assay: Percentage EF2K activity remaining in the presence of 2uM inhibitor
T1 sequence (whole entry): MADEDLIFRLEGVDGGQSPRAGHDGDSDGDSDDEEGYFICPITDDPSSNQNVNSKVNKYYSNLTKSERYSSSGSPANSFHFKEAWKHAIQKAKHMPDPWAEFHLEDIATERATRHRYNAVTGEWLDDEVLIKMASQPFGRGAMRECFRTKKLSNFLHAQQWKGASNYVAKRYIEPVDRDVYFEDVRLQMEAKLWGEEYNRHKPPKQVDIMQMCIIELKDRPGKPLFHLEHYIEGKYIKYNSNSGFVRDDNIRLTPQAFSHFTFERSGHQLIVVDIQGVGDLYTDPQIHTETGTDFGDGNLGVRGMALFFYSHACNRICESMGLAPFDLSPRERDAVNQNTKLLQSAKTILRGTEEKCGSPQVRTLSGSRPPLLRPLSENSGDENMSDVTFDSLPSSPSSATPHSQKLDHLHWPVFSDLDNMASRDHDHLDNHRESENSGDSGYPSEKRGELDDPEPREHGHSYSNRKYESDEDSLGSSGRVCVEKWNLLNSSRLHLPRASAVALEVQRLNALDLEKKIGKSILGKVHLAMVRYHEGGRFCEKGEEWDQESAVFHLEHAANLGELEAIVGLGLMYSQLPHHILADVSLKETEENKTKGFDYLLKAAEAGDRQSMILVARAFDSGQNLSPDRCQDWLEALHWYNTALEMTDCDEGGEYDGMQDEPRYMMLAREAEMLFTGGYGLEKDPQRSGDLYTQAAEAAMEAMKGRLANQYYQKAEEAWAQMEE

[6] = molecular target: Calcium/calmodulin-dependent protein kinase type 1 (Homo sapiens) (UniProt Q14012); assay: Percentage CaMK1 activity remaining in the presence of 2uM inhibitor
[7] = molecular target: T2, Serine/threonine-protein kinase D1 (Homo sapiens) (UniProt Q15139); assay: Percentage PKD1 activity remaining in the presence of 3uM inhibitor
T2 sequence (whole entry): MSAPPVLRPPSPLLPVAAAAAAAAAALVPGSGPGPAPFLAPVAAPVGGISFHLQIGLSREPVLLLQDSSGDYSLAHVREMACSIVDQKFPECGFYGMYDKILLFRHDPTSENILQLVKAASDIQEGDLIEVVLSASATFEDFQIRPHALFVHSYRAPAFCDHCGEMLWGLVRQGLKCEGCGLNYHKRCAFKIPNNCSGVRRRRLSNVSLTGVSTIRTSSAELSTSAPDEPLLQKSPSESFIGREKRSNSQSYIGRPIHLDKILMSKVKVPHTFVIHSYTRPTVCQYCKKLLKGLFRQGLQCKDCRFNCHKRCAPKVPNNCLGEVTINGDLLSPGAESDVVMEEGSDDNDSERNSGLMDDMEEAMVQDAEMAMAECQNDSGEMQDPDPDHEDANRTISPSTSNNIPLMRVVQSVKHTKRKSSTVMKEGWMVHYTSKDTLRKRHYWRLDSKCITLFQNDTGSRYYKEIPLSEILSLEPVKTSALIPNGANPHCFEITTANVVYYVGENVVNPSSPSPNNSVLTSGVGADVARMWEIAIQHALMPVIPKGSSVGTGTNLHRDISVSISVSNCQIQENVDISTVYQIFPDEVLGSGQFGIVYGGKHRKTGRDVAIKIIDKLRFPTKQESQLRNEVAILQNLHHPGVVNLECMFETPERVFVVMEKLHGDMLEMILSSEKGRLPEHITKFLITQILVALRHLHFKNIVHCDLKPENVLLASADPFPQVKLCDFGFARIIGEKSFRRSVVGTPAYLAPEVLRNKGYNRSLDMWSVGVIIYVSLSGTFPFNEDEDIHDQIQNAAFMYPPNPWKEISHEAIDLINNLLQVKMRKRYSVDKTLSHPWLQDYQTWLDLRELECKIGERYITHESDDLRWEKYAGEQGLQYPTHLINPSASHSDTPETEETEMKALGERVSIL

[8] = molecular target: Serine/threonine-protein kinase Nek6 (Homo sapiens) (UniProt Q9HC98); assay: Percentage NEK6 activity remaining in the presence of 3uM inhibitor
[9] = molecular target: T3, Serine/threonine-protein kinase 3 (Homo sapiens) (UniProt Q13188); assay: Percentage MST2 activity remaining in the presence of 3uM inhibitor
T3 sequence (whole entry): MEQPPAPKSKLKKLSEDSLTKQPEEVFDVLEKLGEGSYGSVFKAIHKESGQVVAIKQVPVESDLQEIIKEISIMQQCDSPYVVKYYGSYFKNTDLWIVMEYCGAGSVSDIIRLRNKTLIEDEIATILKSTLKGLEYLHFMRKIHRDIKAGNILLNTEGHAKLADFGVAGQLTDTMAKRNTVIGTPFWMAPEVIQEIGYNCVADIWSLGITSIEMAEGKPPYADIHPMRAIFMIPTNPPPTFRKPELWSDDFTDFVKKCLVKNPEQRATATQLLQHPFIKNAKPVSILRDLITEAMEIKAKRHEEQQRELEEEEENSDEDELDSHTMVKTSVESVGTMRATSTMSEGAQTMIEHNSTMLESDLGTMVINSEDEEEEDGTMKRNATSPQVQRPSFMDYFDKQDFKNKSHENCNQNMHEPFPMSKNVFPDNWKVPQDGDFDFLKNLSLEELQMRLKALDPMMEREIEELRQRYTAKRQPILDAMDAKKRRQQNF

[10] = molecular target: T4, Mitogen-activated protein kinase 13 (Homo sapiens) (UniProt O15264); assay: Percentage p38delta activity remaining in the presence of 3uM inhibitor
T4 sequence (whole entry): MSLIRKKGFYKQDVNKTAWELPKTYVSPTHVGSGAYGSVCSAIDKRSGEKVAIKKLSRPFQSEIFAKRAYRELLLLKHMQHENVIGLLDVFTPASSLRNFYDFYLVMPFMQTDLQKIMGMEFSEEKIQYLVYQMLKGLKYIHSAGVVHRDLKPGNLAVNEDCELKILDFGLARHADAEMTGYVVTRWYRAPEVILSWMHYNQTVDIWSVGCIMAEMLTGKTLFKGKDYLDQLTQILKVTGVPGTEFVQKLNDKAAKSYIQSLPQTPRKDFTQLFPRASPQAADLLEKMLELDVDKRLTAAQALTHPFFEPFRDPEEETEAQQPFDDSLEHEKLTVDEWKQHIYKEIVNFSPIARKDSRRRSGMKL

[11] = molecular target: Mitogen-activated protein kinase 8 (Homo sapiens, UniProt P45983); assay: Percentage JNK1 activity remaining in the presence of 3uM inhibitor
Mitogen-activated protein kinase 8, sequence (P45983 whole entry): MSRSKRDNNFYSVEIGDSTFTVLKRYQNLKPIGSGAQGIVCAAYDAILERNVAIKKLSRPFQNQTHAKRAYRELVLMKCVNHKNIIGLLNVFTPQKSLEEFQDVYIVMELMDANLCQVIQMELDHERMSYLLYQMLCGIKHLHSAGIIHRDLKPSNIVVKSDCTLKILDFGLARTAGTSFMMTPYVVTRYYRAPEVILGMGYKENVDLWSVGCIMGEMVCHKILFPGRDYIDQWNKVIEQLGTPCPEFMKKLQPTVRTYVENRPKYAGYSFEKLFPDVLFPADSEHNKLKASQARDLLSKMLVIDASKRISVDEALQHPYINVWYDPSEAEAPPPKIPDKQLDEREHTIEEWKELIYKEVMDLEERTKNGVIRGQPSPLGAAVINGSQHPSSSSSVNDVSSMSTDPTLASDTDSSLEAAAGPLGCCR

MAP/microtubule affinity-regulating kinase 3 (Homo sapiens), sequence (P27448 whole entry, looked up): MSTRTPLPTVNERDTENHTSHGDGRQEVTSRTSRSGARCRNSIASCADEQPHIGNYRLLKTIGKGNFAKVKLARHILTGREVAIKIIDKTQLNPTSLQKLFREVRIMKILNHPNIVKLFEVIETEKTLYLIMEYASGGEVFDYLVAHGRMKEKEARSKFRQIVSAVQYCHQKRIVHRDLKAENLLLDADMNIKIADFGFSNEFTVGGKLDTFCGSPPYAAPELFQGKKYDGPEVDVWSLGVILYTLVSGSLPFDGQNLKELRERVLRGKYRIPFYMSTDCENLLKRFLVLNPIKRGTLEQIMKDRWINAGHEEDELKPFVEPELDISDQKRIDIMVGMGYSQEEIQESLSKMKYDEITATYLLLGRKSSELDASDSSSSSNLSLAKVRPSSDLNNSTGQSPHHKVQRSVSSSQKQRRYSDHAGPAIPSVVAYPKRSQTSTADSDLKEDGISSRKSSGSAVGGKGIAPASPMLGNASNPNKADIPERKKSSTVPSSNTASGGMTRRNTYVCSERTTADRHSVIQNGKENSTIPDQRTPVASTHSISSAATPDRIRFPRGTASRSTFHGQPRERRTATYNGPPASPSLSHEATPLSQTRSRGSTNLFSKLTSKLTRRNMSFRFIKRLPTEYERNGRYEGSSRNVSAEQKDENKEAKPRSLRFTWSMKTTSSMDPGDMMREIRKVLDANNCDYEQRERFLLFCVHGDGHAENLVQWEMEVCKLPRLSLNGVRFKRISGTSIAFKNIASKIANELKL
Calcium/calmodulin-dependent protein kinase type 1 (Homo sapiens), sequence (Q14012 whole entry, looked up): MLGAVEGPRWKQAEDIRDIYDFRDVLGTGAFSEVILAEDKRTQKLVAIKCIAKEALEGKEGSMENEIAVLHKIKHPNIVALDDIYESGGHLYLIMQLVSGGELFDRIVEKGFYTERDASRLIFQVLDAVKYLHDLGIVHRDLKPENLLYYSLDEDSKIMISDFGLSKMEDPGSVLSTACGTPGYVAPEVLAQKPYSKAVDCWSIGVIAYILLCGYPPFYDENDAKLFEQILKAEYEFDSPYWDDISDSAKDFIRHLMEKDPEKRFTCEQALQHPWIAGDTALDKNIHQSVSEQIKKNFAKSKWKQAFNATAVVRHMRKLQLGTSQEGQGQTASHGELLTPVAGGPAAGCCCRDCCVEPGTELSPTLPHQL
Serine/threonine-protein kinase Nek6 (Homo sapiens), sequence (Q9HC98 whole entry): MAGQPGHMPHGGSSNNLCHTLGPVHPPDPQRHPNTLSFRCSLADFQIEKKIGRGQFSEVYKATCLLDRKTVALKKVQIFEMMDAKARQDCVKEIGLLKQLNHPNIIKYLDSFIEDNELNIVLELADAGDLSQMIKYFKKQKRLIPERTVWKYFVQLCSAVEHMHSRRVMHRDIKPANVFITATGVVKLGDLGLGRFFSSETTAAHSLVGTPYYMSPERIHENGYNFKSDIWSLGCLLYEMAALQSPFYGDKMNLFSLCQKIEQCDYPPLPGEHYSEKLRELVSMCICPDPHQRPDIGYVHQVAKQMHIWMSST
Mitogen-activated protein kinase 11 (Homo sapiens), sequence (Q15759 whole entry): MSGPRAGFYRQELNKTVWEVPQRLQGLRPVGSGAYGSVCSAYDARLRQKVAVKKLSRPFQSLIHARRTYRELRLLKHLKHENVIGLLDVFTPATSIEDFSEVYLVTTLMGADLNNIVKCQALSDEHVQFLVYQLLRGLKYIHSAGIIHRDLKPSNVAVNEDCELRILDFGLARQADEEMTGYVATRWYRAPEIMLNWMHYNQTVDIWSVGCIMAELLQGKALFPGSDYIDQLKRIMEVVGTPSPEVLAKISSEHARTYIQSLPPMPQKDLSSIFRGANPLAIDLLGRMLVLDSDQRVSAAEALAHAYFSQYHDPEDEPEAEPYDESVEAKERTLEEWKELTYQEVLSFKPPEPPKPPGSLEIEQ
Mitogen-activated protein kinase 9, sequence (P45984 whole entry, looked up, canonical isoform): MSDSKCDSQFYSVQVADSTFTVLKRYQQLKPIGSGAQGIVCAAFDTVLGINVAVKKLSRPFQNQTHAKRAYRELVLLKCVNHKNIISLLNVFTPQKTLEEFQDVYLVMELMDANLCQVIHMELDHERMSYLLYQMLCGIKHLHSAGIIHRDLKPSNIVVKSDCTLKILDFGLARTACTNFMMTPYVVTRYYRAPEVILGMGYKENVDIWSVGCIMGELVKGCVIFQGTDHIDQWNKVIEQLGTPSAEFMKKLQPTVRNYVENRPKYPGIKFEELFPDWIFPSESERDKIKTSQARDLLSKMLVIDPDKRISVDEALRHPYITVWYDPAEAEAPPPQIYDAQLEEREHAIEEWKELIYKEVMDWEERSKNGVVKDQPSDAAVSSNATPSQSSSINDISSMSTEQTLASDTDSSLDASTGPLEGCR
Casein kinase I isoform delta, sequence (P48730 whole entry, looked up, canonical isoform): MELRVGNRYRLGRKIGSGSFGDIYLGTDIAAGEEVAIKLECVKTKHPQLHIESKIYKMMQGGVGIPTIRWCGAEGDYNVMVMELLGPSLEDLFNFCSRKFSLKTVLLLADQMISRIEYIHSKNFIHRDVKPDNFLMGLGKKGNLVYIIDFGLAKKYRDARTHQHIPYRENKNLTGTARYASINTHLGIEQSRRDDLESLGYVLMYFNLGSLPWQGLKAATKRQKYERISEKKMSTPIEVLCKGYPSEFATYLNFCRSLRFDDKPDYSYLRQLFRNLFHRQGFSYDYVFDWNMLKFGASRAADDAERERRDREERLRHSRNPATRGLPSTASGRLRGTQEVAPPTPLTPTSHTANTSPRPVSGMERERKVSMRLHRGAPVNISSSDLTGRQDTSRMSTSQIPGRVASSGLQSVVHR

| Activity [1] | Activity [2] | Activity [3] | Activity [4] | Activity [5] | Activity [6] | Activity [7] | Activity [8] | Activity [9] | Activity [10] | Activity [11] | Structure (SMILES) |
| --- | --- | --- | --- | --- | --- | --- | --- | --- | --- | --- | --- |
| 85% | 78% | 85% | 76% | 98% | 96% |  |  |  |  |  | Cn1cc(C2=C(c3ccc(Cl)cc3Cl)C(=O)NC2=O)c2ccccc21 |
|  |  |  |  |  |  | 83% | 90% | 76% | 103% | 81% | Cc1ccc(-c2c(C(=O)CF)n(CCCO)c3ncnc(N)c23)cc1 |
